The values below come from patent US9957268B2, “1H-pyrrolo[2,3,c]pyridin-7(6H)-ones and pyrazolo[3,4-c]pyridin-7(6H)-ones as inhibitors of BET proteins” (Incyte Corporation, priority 2014, dated 2018).

Some results are limits rather than exact numbers.

Assay [1] concerns the target BRD4-BD1 (Homo sapiens (Human), UniProt O60885). As to the kind of experiment: BRD4 AlphaScreen assay (BRD4-BD1). Type of assay: binding. The following applies: biotin-labeled tetra-acetylated histone H4 peptide. The method, then: (§1) BRD4-BD1 and BRD4-BD2 assays were conducted in white 384-well polystyrene plate in a final volume of 40 μL for BD1 and 60 μL for BD2. Inhibitors were first serially diluted in DMSO and added to the plate wells before the addition of other reaction components. The final concentration of DMSO in the assay was 1.25% (BD1) and 0.83% (BD2). The assays were carried out at room temperature in the assay buffer (50 mM Tris-HCl, pH 7.5, 0.01% Tween-20, 0.01% BSA, 5 mM DTT), containing 50 nM Biotin-labeled tetra-acetylated histone H4 peptide (H4Ac4) and BRD4-BD1 or BRD4-BD2 protein at concentration less than 1 nM. The incubation for 75 min. was followed by the addition of 20 μL of assay buffer supplemented with Streptavidin donor beads (PerkinElmer 6760002) and GSH Acceptor beads (PerkinElmer-AL109C) at final concentration 2-4 μg/mL under reduced light. After plate sealing, the plate was incubated in the dark at room temperature for 75 min. before reading on a PHERAstar FS plate reader (BMG Labtech). IC50 determination was performed by fitting the curve of percent control activity versus the log of the inhibitor concentration using the GraphPad Prism 5.0 software.
In general terms: Alpha assays give light when donor and acceptor beads are brought close together.

The target in assay [2] is BRD4-BD2 (Homo sapiens (Human), UniProt O60885). As to the kind of experiment: BRD4 AlphaScreen assay (BRD4-BD2). The following applies: biotin-labeled tetra-acetylated histone H4 peptide. Type of assay: binding. The method, then:
as §1

Consider `COc1cc2c(c(-c3cn(C)c(=O)c4[nH]ccc34)c1)OC(C1CC1)C(=O)N2` (centres unmarked) [Example 23, 2-cyclopropyl-6-methoxy-8-(6-methyl-7-oxo-6,7-dihydro-1H-pyrrolo[2,3-c]pyridin-4-yl)-2H-1,4-benzoxazin-3(4H)-one], for which the IC50 in assay [1] and in assay [2] was ≤ 0.1 µM each time.

For `COc1cc2c(c(-c3cn(C)c(=O)c4[nH]ccc34)c1)OC(c1ccccc1)C(=O)N2` (centres unmarked) [Example 24, 6-methoxy-8-(6-methyl-7-oxo-6,7-dihydro-1H-pyrrolo[2,3-c]pyridin-4-yl)-2-phenyl-2H-1,4-benzoxazin-3(4H)-one], the IC50 in assay [1] and in assay [2] was ≤ 0.1 µM in each case.

For `COc1cc2c(c(-c3cn(C)c(=O)c4[nH]ccc34)c1)OC(c1ccc(F)cc1Cl)C(=O)N2` (centres unmarked) [Example 25, 2-(2-chloro-4-fluorophenyl)-6-methoxy-8-(6-methyl-7-oxo-6,7-dihydro-1H-pyrrolo[2,3-c]pyridin-4-yl)-2H-1,4-benzoxazin-3(4H)-one], the IC50 in assay [1] and in assay [2] was ≤ 0.1 µM each time.

Consider `COc1cc2c(c(-c3cn(C)c(=O)c4[nH]ncc34)c1)OC(C(C)C)C(=O)N2` (centres unmarked) [Example 26, 2-isopropyl-6-methoxy-8-(6-methyl-7-oxo-6,7-dihydro-1H-pyrazolo[3,4-c]pyridin-4-yl)-2H-1,4-benzoxazin-3(4H)-one], for which the half-inhibitory concentration (IC50) in assay [1] and in assay [2] was ≤ 0.1 µM throughout.

In the case of `COc1cc2c(c(-c3cn(C)c(=O)c4[nH]ccc34)c1)OC(C)(C)C(=O)N2` [Example 27, 6-methoxy-2,2-dimethyl-8-(6-methyl-7-oxo-6,7-dihydro-1H-pyrrolo[2,3-c]pyridin-4-yl)-2H-1,4-benzoxazin-3(4H)-one], the concentration for half-maximal inhibition (IC50) in assay [1] and in assay [2] was ≤ 0.1 µM each time.

For `COc1cc2c(c(-c3cn(C)c(=O)c4[nH]ncc34)c1)OC(C)(C)C(=O)N2` [Example 29, 6-methoxy-2,2-dimethyl-8-(6-methyl-7-oxo-6,7-dihydro-1H-pyrazolo[3,4-c]pyridin-4-yl)-2H-1,4-benzoxazin-3(4H)-one], the IC50 in assay [1] and in assay [2] was ≤ 0.1 µM each time.

On to `Cn1cc(-c2cccc3c2OC2(CC2)C(=O)N3)c2cc[nH]c2c1=O` [Example 30, 8-(6-methyl-7-oxo-6,7-dihydro-1H-pyrrolo[2,3-c]pyridin-4-yl)spiro[1,4-benzoxazine-2,1′-cyclopropan]-3(4H)-one], for which the IC50 in assay [1] and in assay [2] was ≤ 0.1 µM each time.

As to `Cn1cc(-c2cccc3c2OC(C)(C)C(=O)N3)c2cc[nH]c2c1=O` [Example 31, 2,2-dimethyl-8-(6-methyl-7-oxo-6,7-dihydro-1H-pyrrolo[2,3-c]pyridin-4-yl)-2H-1,4-benzoxazin-3(4H)-one], the 50% inhibitory concentration (IC50) in assay [1] and in assay [2] was ≤ 0.1 µM each time.

As to `Cn1cc(-c2cccc3c2NC(C)(C)C(=O)N3)c2cc[nH]c2c1=O` [Example 32, 3,3-dimethyl-5-(6-methyl-7-oxo-6,7-dihydro-1H-pyrrolo[2,3-c]pyridin-4-yl)-3,4-dihydroquinoxalin-2(1H)-one], the IC50 (in general, the concentration that gives 50% inhibition) was 0.1 to 1 µM in assay [1] and ≤ 0.1 µM in assay [2].

As to `CC(C)C1Oc2c(cc(C(=O)N3CCOCC3)cc2-c2cn(C)c(=O)c3[nH]ccc23)NC1=O` (centres unmarked) [Example 33, 2-isopropyl-8-(6-methyl-7-oxo-6,7-dihydro-1H-pyrrolo[2,3-c]pyridin-4-yl)-6-(morpholin-4-ylcarbonyl)-2H-1,4-benzoxazin-3(4H)-one], the concentration for half-maximal inhibition (IC50) in assay [1] and in assay [2] was ≤ 0.1 µM each time.

With `CC(C)C1Oc2c(cc(C(=O)N(C)C)cc2-c2cn(C)c(=O)c3[nH]ccc23)NC1=O` (centres unmarked) [Example 34, 2-isopropyl-N,N-dimethyl-8-(6-methyl-7-oxo-6,7-dihydro-1H-pyrrolo[2,3-c]pyridin-4-yl)-3-oxo-3,4-dihydro-2H-1,4-benzoxazine-6-carboxamide], the 50% inhibitory concentration (IC50) in assay [1] and in assay [2] was ≤ 0.1 µM in each case.

Turning to `CC(C)C1Oc2c(cc(CO)cc2-c2cn(C)c(=O)c3[nH]ccc23)NC1=O` (centres unmarked) [Example 36, 6-(hydroxymethyl)-2-isopropyl-8-(6-methyl-7-oxo-6,7-dihydro-1H-pyrrolo[2,3-c]pyridin-4-yl)-2H-1,4-benzoxazin-3(4H)-one], the IC50 in assay [1] and in assay [2] was ≤ 0.1 µM each time.

For `COCc1cc2c(c(-c3cn(C)c(=O)c4[nH]ccc34)c1)OC(C(C)C)C(=O)N2` (centres unmarked) [Example 37, 2-isopropyl-6-(methoxymethyl)-8-(6-methyl-7-oxo-6,7-dihydro-1H-pyrrolo[2,3-c]pyridin-4-yl)-2H-1,4-benzoxazin-3(4H)-one], the concentration for half-maximal inhibition (IC50) in assay [1] and in assay [2] was ≤ 0.1 µM throughout.

As to `CC(C)C1Oc2c(cc(CN)cc2-c2cn(C)c(=O)c3[nH]ccc23)NC1=O` (centres unmarked) [Example 38, 6-(Aminomethyl)-2-isopropyl-8-(6-methyl-7-oxo-6,7-dihydro-1H-pyrrolo[2,3-c]pyridin-4-yl)-2H-1,4-benzoxazin-3(4H)-one], the concentration for half-maximal inhibition (IC50) was 0.1 to 1 µM in assay [1] and ≤ 0.1 µM in assay [2].

`CCS(=O)(=O)NCc1cc2c(c(-c3cn(C)c(=O)c4[nH]ccc34)c1)OC(C(C)C)C(=O)N2` (centres unmarked) [Example 39, N-{[2-isopropyl-8-(6-methyl-7-oxo-6,7-dihydro-1H-pyrrolo[2,3-c]pyridin-4-yl)-3-oxo-3,4-dihydro-2H-1,4-benzoxazin-6-yl]methyl}ethanesulfonamide]: the IC50 in assay [1] and in assay [2] was ≤ 0.1 µM throughout.

For `CC(=O)NCc1cc2c(c(-c3cn(C)c(=O)c4[nH]ccc34)c1)OC(C(C)C)C(=O)N2` (centres unmarked) [Example 40, N-{[2-isopropyl-8-(6-methyl-7-oxo-6,7-dihydro-1H-pyrrolo[2,3-c]pyridin-4-yl)-3-oxo-3,4-dihydro-2H-1,4-benzoxazin-6-yl]methyl}acetamide], the IC50 in assay [1] and in assay [2] was ≤ 0.1 µM in each case.

Turning to `CC(C)C1Oc2c(cc(C(N)=O)cc2-c2cn(C)c(=O)c3[nH]ccc23)NC1=O` (centres unmarked) [Example 41, 2-isopropyl-8-(6-methyl-7-oxo-6,7-dihydro-1H-pyrrolo[2,3-c]pyridin-4-yl)-3-oxo-3,4-dihydro-2H-1,4-benzoxazine-6-carboxamide], the half-inhibitory concentration (IC50) in assay [1] and in assay [2] was ≤ 0.1 µM each time.

With `COc1cc2c(c(-c3cn(C)c(=O)c4[nH]ncc34)c1)OC(C1CCCC1)C(=O)N2` (centres unmarked) [Example 42, 2-Cyclopentyl-6-methoxy-8-(6-methyl-7-oxo-6,7-dihydro-1H-pyrazolo[3,4-c]pyridin-4-yl)-2H-1,4-benzoxazin-3(4H)-one], the concentration for half-maximal inhibition (IC50) in assay [1] and in assay [2] was ≤ 0.1 µM throughout.

As to `CC(C)C1Oc2c(cc(-c3ccco3)cc2-c2cn(C)c(=O)c3[nH]ccc23)NC1=O` (centres unmarked) [Example 43, 6-(2-furyl)-2-isopropyl-8-(6-methyl-7-oxo-6,7-dihydro-1H-pyrrolo[2,3-c]pyridin-4-yl)-2H-1,4-benzoxazin-3(4H)-one], the values for the IC50 in assay [1] and in assay [2] were 0.1 to 1 µM and ≤ 0.1 µM, respectively.

As for `CC(C)C1Oc2c(cc(S(C)(=O)=O)cc2-c2cn(C)c(=O)c3[nH]ccc23)NC1=O` (centres unmarked) [Example 44, 2-isopropyl-8-(6-methyl-7-oxo-6,7-dihydro-1H-pyrrolo[2,3-c]pyridin-4-yl)-6-(methylsulfonyl)-2H-1,4-benzoxazin-3(4H)-one], the half-inhibitory concentration (IC50) in assay [1] and in assay [2] was ≤ 0.1 µM each time.

In the case of `Cn1cc(-c2cc(S(C)(=O)=O)cc3c2OC(C)(C)C(=O)N3)c2cc[nH]c2c1=O` [Example 45, 2,2-dimethyl-8-(6-methyl-7-oxo-6,7-dihydro-1H-pyrrolo[2,3-c]pyridin-4-yl)-6-(methylsulfonyl)-2H-1,4-benzoxazin-3(4H)-one], the IC50 in assay [1] and in assay [2] was ≤ 0.1 µM in each case.

For the compound `Cn1cc(-c2cc(S(C)(=O)=O)cc3c2OC(c2ccccc2)C(=O)N3)c2cc[nH]c2c1=O` (centres unmarked) [Example 46, 8-(6-methyl-7-oxo-6,7-dihydro-1H-pyrrolo[2,3-c]pyridin-4-yl)-6-(methylsulfonyl)-2-phenyl-2H-1,4-benzoxazin-3(4H)-one], the concentration for half-maximal inhibition (IC50) in assay [1] and in assay [2] was ≤ 0.1 µM each time.

On to `CC(C)C1Oc2c(-c3cn(C)c(=O)c4[nH]ccc34)cc(S(C)(=O)=O)cc2N(C)C1=O` (centres unmarked) [Example 47, 2-isopropyl-4-methyl-8-(6-methyl-7-oxo-6,7-dihydro-1H-pyrrolo[2,3-c]pyridin-4-yl)-6-(methylsulfonyl)-2H-1,4-benzoxazin-3(4H)-one], for which the IC50 in assay [1] and in assay [2] was ≤ 0.1 µM throughout.

For the compound `Cn1cc(-c2cc(S(C)(=O)=O)cc3c2OC(CCO)C(=O)N3)c2cc[nH]c2c1=O` (centres unmarked) [Example 48, 2-(2-hydroxyethyl)-8-(6-methyl-7-oxo-6,7-dihydro-1H-pyrrolo[2,3-c]pyridin-4-yl)-6-(methylsulfonyl)-2H-1,4-benzoxazin-3(4H)-one], the IC50 in assay [1] and in assay [2] was ≤ 0.1 µM throughout.

In the case of `CC(=O)c1cc2c(c(-c3cn(C)c(=O)c4[nH]ccc34)c1)OC(C(C)C)C(=O)N2` (centres unmarked) [Example 49, 6-acetyl-2-isopropyl-8-(6-methyl-7-oxo-6,7-dihydro-1H-pyrrolo[2,3-c]pyridin-4-yl)-2H-1,4-benzoxazin-3(4H)-one], the IC50 in assay [1] and in assay [2] was ≤ 0.1 µM in each case.
